Laboratory results reported in US11008325B2, “Inhibitors of cancer invasion, attachment, and/or metastasis” (VIRGINIA COMMONWEALTH UNIVERSITY, priority 2016, dated 2021).
Entries after “also recorded” stand apart in the source; their conditions may differ.

What was measured:
[1] = system: RWPE-1 cells overexpressing mda-9; assay: modified Boyden Chamber invasion assay; type: cell-based, human
Procedure: (§1) FIGS. 17A-17H. Effect of PDZ1i on invasion, MDA-9/IGF-R1 interaction and IGF-R1, STAT3 and SRC phosphorylation. FIG. 17A) Different cancer cells (25,000 cells/well) from various anatomic origins were pre-treated with either DMSO (vehicle) or PDZ1i (dose as indicated) and invasion ability was assayed using modified Boyden Chamber according to the manufacturer's instructions. Photomicrographs were taken at 10× magnification and quantification of the results of three independent experiments is provided in the graphs. The data presents mean±S.D. B) The designated cells were treated with DMSO or PDZ1i and invasion properties were determined using a modified Boyden Chamber assay (BD bioscience). RWPE-1 mda-9: mda-9 transiently overexpressing cell line. […] FIG. 17E) Cells were growth starved for 24 h and treated with either DMSO or PDZ1i (dose indicated in μM) for 6 h. Cells were treated with human recombinant IGFBP-2 (hIGFBP-2, 10 ng/ml) for 2 h, lysates were prepared and western blot analysis was conducted with specific antibodies. […] Cells were treated with human recombinant IL-6 (hIGFBP-2, 1 ng/ml) for 2 h, cell lysates were prepared and analyzed by western blotting. […]
(§2) Boyden chamber assays were done to investigate the invasive properties of cancer cells^26, 27. […] After 18 h, invasive cells were photographed and analyzed.

[2] = molecular target: MDA-9/IGF-1R interactions (Homo sapiens, UniProt O00560); assay: co-immunoprecipitation in DU145 and ARCaPM cells; type: cell-based; settings: PDZ1i for 6 h
Procedure: as §1, with “antibodies. FIG. 17F) Cells were serum-starved for 24 h and treated with either DMSO or PDZ1i (20 μM) for 6 h.” for “antibodies.”
Next, the effect of PDZ1i on MDA-9 and IGF-1R interactions was determined. […]

[3] = system: various types of cancer cells including PC; assay: modified Boyden Chamber invasion assay; type: cell-based, human; settings: pre-treatment, dose as indicated (20 μM or 40 μM)
Procedure: as §1, §2

[4] = system: ARCaPM-Luc cells; assay: ARCaPM-Luc experimental metastasis model, PDZ1i treatment; type: in vivo, athymic nude mice; settings: 30 mg/kg body weight I.P.
Procedure: FIG. 19A-19F. PDZ1i suppresses prostate cancer metastasis and tumor progression. FIG. 19A) Survival data for athymic nude mice in which DMSO or PDZ1i pre-treated ARCaPM cells were injected. FIG. 19B) Survival data for athymic nude mice which were injected with (n=5, each group) ARCaPM-Luc (1×10^6 cells in 100 μl saline) through an intracardiac route. Mice received either vehicle or PDZ1i every alternative day (9 injections during the first three months) and maintained until they needed to be euthanized. FIG. 19C) Survival data for C57BL/6 mice injected through the intracardiac route with RM1-Luc. Vehicle or PDZ1i was administered through intraperitoneal injection every alternate day (total 3 injections during the first week). Survival curves were generated using 6 control vehicle-treated and 5 PDZ1i-treated. Kaplan—Meier survival curves were prepared using Graph Pad software. […] Graphical representation of the average prostate weights from control and treated groups. FIG. 19E and FIG. 19F) Photomicrographs representing the histological changes in prostate sections obtained from 6-month old Hi-Myc mice receiving either vehicle (FIG. 19E) or PDZ1i (FIG. 19F).
To evaluate potential therapeutic efficacy of PDZ1i four sets of in vivo experiments were conducted. […]

MDA-9/IGF-1R interactions, sequence (O00560 2-298 limits assumed): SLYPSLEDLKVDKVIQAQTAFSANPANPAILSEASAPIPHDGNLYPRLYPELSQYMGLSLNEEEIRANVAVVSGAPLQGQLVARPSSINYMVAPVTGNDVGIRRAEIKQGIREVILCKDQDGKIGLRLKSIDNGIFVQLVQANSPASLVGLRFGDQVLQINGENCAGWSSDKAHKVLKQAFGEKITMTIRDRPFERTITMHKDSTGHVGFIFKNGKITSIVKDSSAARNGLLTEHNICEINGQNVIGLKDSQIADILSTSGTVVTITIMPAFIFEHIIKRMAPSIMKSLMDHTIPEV

In the case of `Cc1cc(NC(=O)c2nc3[nH]c4c(c(=O)n3n2)CCC4)c(C)cc1NC(=O)CCc1nnc(-c2ccccc2)o1` [113B7, N-(2,5-dimethyl-4-(3-(5-phenyl-1,3,4-oxadiazol-2-yl)propanamido)phenyl)-8-oxo-5,6,7,8-tetrahydro-4H-cyclopenta[d][1,2,4]triazolo[1,5-a]pyrimidine-2-carboxamide], the mda-9-mediated invasion [1] is reported as “significantly attenuated”, the MDA-9/IGF-1R interaction [2] is reported as “selectively inhibits” and the invasion [3] is reported as “inhibited invasion in a dose-dependent manner; also recorded: significantly inhibited the invasion”. For the same molecule, the invasion ([3]; listed as PDZ1i) was “significantly inhibited the invasion”, the “metastatic lesions by BLI” value [4] was “significantly fewer lesions” and the survival [4] was “prolonged survival”.
